Laboratory results as given in patent US20230119013A1, “N-CYANOPYRROLIDINES WITH ACTIVITY AS USP30 INHIBITORS” (MISSION THERAPEUTICS LIMITED, priority 2020, published 2023).
Read-outs that look alike come from different tables or passages of the source.

How the values were obtained:
Cathepsin K = Cathepsin K (Homo sapiens, UniProt P43235); assay: Cathepsin IC50, Cathepsin K; assay type: biochemical
Cathepsin V = Cathepsin V (Homo sapiens, UniProt O60911); assay: Cathepsin IC50, Cathepsin V; assay type: biochemical
[1] = test system: UCHL1, USP1, USP2, USP6, USP9x, USP10, USP15, USP16, USP20, USP21, USP22, USP25, USP28, USP35, USP36, USP46/UAF1; assay: DUB biochemical IC50 assays (off-target panel)
hepatocyte = assay: Hepatocyte clearance human; assay type: in vitro ADME; conditions: human hepatocytes
Text: (§1) log P: partition coefficient; lipophilicity measurement. log D: distribution co-efficient; lipophilicity measurement. TPSA: topological polar surface area. Turbidimetric solubility: Test compound solution prepared in DMSO diluted into aqueous buffer. Turbidimetry is used as the end-point by measuring absorbance at 620 nm. FaSSIF: simulated intestinal fluid in fasted state measured at pH 6.5. Hep Cl mouse: in vitro hepatocyte clearance in mouse cells. Hep Cl human: in vitro hepatocyte clearance in human cells. Plasma fu,p: The free fraction of a compound in plasma preparation determined by in vitro equilibrium dialysis. It is understood that only unbound (free) compound is capable of engaging with the target. Brain fu,br: The free fraction of a compound in brain homogenate preparation determined by in vitro equilibrium dialysis. It is understood that only unbound (free) compound is capable of engaging with the target. Clu: in vitro clearance. Clu as defined here is the scaled clearance, in turn calculated from the intrinsic clearance. The intrinsic clearance is the predicted clearance due to hepatic metabolic reactions, determined from incubation of a compound in a hepatocyte preparation. […] Cl in vivo clearance: Pharmacokinetic measurement of the volume of plasma (or any matrix) from which a substance is completely removed per unit time.

Cathepsin B = Cathepsin B (Homo sapiens, UniProt P07858); assay: Cathepsin IC50, Cathepsin B; assay type: biochemical
[2] = test system: HCT116 human colorectal carcinoma cells; assay: In vitro cytotoxicity (Cell Tox), alamarBlue; assay type: cell-based; conditions: HCT-116, 96-hour continual compound exposure
Procedure: In Vitro Cytotoxicity (Cell Tox): Measured in HCT116 human colorectal carcinoma cells using alamarBlue™ as the assay endpoint. Compound cytotoxicity was measured over a period of 96-hour continual compound exposure.

[3] = test system: USP2, USP10, USP16, USP21, USP22, USP25, USP28; assay: DUB IC50, seven DUBs; assay type: biochemical; conditions: range over the seven DUBs
[4] = test system: T1, USP2, USP10, USP16, USP21, USP22, USP25, USP28; assay: DUB IC50, seven DUBs; assay type: biochemical; conditions: range over the seven DUBs
T1 construct: DUB IC50 (μM) USP2, USP10, USP16, USP21, USP22, USP25, USP28; other: range over the seven DUBs

TOM20 ubiquitylation = assay: TOM20-ubiquitylation assay; assay type: cell-based, human; conditions: antimycin A/oligomycin mitophagy trigger
Text: Human cell lines can be challenged with mitochondrial depolarizing agents (ionophores (eg. CCCP, valinomycin), mitochondrial complex inhibitors (oligomycin, antimycin A)) to induce ubiquitylation of TOM20, which is then further promoted in the presence of USP30 inhibitors. TOM20 ubiquitylation is subsequently assessed through western blotting of the cell lysates, with TOM20 ubiquitylation adduct detection possible due to an 8 kDa molecule weight increase for each molecule of ubiquitin added, resulting in laddering of a TOM20 immunoreactive band. TOM20-ubiquitylation levels can be quantified using chemiluminescence densitometry of laddered immunoreactive bands.

[5] = Plasma free fraction by equilibrium dialysis; assay type: in vitro ADME; conditions: mouse plasma; read-out: Binding Mouse Plasma fu, p
Text: as §1

Mouse plasma stability = assay type: in vitro ADME; conditions: read-out: Stability Mouse plasma t1/2
hERG potassium channel = target: T2, hERG potassium channel (Homo sapiens, UniProt Q12809); assay: hERG potassium channel in stably expressed CHO cells; assay type: cell-based; conditions: for IC50: 0.01 to 30 μM, n=3; for inhibition at 30 µM: human, CHO cells stably expressing hERG, read-out: inhibition of the hERG current amplitude
T2 construct: expressed in transfected cells
Procedure: The hERG predictor assay provides valuable information about the possible binding of test compounds to the potassium channel and potential QT prolongation on […]. Inhibition of the hERG current causes QT interval prolongation resulting in potentially fatal ventricular tachyarrhythmia (Torsades de Pointes). Typically, assay data may be generated from an automated patch-clamp assay platform.
Example 1 was evaluated for effects on the hERG potassium channel, in stably expressed CHO cells at concentrations between 0.01 and 30 μM.
Example 2 was evaluated for effects on the hERG potassium channel, in stably expressed CHO cells at concentrations between 0.01 and 30 μM.

[6] = test system: P-glycoprotein (MDR1), human; assay: MDR1-MDCK flux assay; assay type: in vitro ADME; conditions: dog; for Papp A→B: value in brackets
Text: The treatment of CNS disorders, including Alzheimer's disease, Parkinson's disease, and other disorders described herein, requires drug molecules to target the brain, which requires adequate penetration of the blood brain barrier. […] The probability that a compound can cross the blood brain barrier may be measured by an in vitro flux assay utilizing a MDR1-MDCK cell monolayer (Madin-Darby Canine Kidney cells transfected with MDR-1 resulting in overexpression of the human efflux transporter P-glycoprotein). Additionally, exposure may also be measured directly in brain and plasma using in vivo animal models.
(§2) MDR1-MDCK (Madin-Darby Canine Kidney cell monolayer) (in vitro) flux assay. Cell TE WB: USP30 endogenous cellular target engagement western blot (WB) assay. Assays the activity of compounds against USP30 in cells using an irreversible activity probe to monitor USP30 activity. TE ex vivo: USP30 kidney tissue target engagement assay. Kp u,u is the ratio of unbound drug in brain to unbound drug in plasma and may be indicative of potential for treating peripheral and/or CNS indications.

Log D measurement = assay type: physicochemical; conditions: pH 7.4; read-out: Log D measured at pH 7.4
Text: as §1

FaSSIF solubility = assay type: physicochemical; conditions: pH 6.5, simulated intestinal fluid in fasted state
Text: as §1

Cathepsin S = Cathepsin S (Homo sapiens, UniProt P25774); assay: Cathepsin IC50, Cathepsin S; assay type: biochemical
[7] = Brain homogenate free fraction by equilibrium dialysis; assay type: in vitro ADME; conditions: mouse brain homogenate; read-out: Binding Mouse Brain fu, br
Text: as §1

PK mouse = assay type: in vivo; conditions: for Unbound plasma Cmax/TOM20-Ub cell potency: 10 mg/kg PO dose - mouse; for bioavailability: po, 10 mg/kg, read-out: PK mouse Oral F (%); for bioavailability / clearance: mouse
Text: as §1, §2

Turbidimetric solubility = assay type: physicochemical; conditions: aqueous buffer, kinetic from dmso stock
Text: as §1

[8] = whole blood, 2 mg/kg iv, read-out: PK mouse Cl blood

T2 sequence (Q12809 whole entry): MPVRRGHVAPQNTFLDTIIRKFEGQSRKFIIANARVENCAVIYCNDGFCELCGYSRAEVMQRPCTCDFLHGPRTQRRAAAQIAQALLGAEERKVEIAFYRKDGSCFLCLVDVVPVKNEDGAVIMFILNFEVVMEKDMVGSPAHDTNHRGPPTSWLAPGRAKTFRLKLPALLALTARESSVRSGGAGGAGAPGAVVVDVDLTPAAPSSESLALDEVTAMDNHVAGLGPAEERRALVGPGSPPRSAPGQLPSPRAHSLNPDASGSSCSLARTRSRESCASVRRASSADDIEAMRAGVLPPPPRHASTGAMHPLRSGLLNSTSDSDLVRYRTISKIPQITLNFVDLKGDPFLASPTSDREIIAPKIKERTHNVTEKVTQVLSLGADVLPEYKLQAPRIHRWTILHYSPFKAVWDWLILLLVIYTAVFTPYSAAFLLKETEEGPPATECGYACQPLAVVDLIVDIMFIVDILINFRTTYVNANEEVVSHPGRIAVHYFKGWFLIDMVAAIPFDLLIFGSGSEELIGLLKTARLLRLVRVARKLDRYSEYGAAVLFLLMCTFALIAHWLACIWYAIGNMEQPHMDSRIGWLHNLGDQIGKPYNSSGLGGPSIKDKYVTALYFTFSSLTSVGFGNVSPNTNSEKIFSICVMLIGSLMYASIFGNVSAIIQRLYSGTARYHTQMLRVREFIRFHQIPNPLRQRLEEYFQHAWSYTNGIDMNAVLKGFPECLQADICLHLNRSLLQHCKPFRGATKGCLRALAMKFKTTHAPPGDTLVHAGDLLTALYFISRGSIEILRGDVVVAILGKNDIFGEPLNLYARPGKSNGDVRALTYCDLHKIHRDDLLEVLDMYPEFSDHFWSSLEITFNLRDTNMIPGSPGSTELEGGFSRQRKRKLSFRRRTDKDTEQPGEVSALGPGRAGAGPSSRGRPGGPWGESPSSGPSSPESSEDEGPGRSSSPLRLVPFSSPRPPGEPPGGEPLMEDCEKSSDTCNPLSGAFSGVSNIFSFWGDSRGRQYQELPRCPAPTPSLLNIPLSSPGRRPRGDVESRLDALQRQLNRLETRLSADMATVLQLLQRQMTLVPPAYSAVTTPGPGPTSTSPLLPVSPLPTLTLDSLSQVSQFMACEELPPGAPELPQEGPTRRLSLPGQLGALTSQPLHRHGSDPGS
Chain of Cathepsin S (P25774 115-331, species assumed): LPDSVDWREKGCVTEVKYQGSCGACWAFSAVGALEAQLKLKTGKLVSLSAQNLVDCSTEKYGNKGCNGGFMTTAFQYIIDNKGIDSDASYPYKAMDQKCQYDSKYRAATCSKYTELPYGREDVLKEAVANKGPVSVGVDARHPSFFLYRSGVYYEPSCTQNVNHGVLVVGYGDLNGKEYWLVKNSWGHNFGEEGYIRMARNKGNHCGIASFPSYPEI
Chain of Cathepsin V (O60911 114-334, species assumed): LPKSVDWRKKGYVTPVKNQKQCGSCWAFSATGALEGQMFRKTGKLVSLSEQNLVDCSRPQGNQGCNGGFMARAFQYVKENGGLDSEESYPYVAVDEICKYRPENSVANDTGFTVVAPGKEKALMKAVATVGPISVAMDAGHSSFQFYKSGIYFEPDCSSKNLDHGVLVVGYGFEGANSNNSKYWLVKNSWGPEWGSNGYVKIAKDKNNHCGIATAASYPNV
Chain of Cathepsin K (P43235 115-329, species assumed): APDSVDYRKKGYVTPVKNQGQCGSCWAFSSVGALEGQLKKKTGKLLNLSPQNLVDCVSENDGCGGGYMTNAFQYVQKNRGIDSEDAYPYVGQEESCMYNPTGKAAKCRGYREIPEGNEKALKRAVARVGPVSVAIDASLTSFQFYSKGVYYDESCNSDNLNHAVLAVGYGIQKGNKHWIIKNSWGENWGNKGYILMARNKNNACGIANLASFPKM

Which IC50 (Cathepsin K) does the source give for `COC[C@@H]1C[C@@H](NC(=O)c2ncc(-c3cccc(OC(F)(F)F)c3)o2)CN1C#N` [Example 1, N-((3R,5S)-1-Cyano-5-(methoxymethyl)pyrrolidin-3-yl)-5-(3-(trifluoromethoxy)phenyl)oxazole-2-carboxamide] here?
The IC50 was 16.5 µM.

And the IC50 (Cathepsin V)?
Its IC50 is 132 µM.

And the “more selective for USP30 over DUB panel” value ([1]; v the 16 DUBs of the 9th table)?
Its value is “(≥880 × more selective”.

What about the “Hepatocyte Cl human scaled Clu” value (hepatocyte) of the same molecule?
Its value is 5.6 mL/min/kg.

What about the IC50 (Cathepsin B) of the same molecule?
Its IC50 is 44.3 µM.

And the EC50 [2]?
The EC50 was > 30 µM.

And the “DUB selectivity preference for USP30 v 7 DUBs” value [3]?
Its value is 880-14380.

What about the IC50 [4] of the same molecule?
Its IC50 is 4.4 to 71.9 µM.

What about the “TOM20-Ub 1.5-fold gain EC1.5x (μM)” value (TOM20 ubiquitylation) of the same molecule?
Its value is 0.011 (n = 6) μM.

And the fraction unbound [5]?
The fraction unbound was 0.06.

And the half-life (Mouse plasma stability)?
The half-life was 11 h.

And the IC50 (hERG potassium channel)?
The IC50 was 34.3 µM.

And the inhibition at 30 µM (hERG potassium channel)?
The inhibition at 30 µM was 44.3%.

And the efflux ratio [6]?
Its efflux ratio is 5.4.

And the Papp A→B [6]?
The Papp A→B was 18 ×10⁻⁶ cm/s.

What about the logD (Log D measurement) of the same molecule?
The logD was 2.9.

What about the “FaSSIF (μM) measured at pH 6.5” value (FaSSIF solubility) of the same molecule?
The value was 89 μM.

And the IC50 (Cathepsin S)?
Its IC50 is 158 µM.

And the fraction unbound [7]?
Its fraction unbound is 0.043.

What about the Kp uu (PK mouse; 2 mg/kg IV dose - mouse, unbound brain to unbound plasma) of the same molecule?
Its Kp uu is 0.21.

And the “Unbound plasma Cmax/TOM20-Ub cell potency” value (PK mouse)?
Its value is 25-fold.

And the bioavailability (PK mouse; plasma)?
Its bioavailability is 59%.

And the clearance (PK mouse; plasma, IV, read-out: IV plasma clearance)?
The clearance was 20 mL/min/kg.

What about the clearance (PK mouse; [8]) of the same molecule?
The clearance was 20 mL/min/kg.

And the solubility (Turbidimetric solubility)?
Its solubility is > 100 µM.

For `C[C@@H]1C[C@@H](NC(=O)c2ncc(-c3cccc(OC(F)(F)F)c3)o2)CN1C#N` [Example 2, N-((3R,5R)-1-Cyano-5-methylpyrrolidin-3-yl)-5-(3-(trifluoromethoxy)phenyl)oxazole-2-carboxamide], which IC50 (Cathepsin K) is on record?
Its IC50 is 9.8 µM.

What about the IC50 (Cathepsin V) of the same molecule?
The IC50 was > 30 µM.

What about the “more selective for USP30 over DUB panel” value ([1]; v the 14 DUBs of the 10th table) of the same molecule?
The value was “(≥940 × more selective”.

And the “Hepatocyte Cl human scaled Clu” value (hepatocyte)?
Its value is 11.2 mL/min/kg.

What about the IC50 (Cathepsin B) of the same molecule?
Its IC50 is > 30 µM.

And the EC50 [2]?
Its EC50 is 24 µM.

And the “DUB selectivity preference for USP30 v 7 DUBs” value [3]?
Its value is 940->20000.

What about the IC50 [4] of the same molecule?
The IC50 was ≥ 4.7 µM.

What about the “TOM20-Ub 1.5-fold gain EC1.5x (μM)” value (TOM20 ubiquitylation) of the same molecule?
Its value is 0.009 (n = 4) μM.

What about the fraction unbound [5] of the same molecule?
Its fraction unbound is 0.05.

And the half-life (Mouse plasma stability)?
Its half-life is 7 h.

What about the IC50 (hERG potassium channel) of the same molecule?
Its IC50 is 24.7 µM.

What about the inhibition at 30 µM (hERG potassium channel) of the same molecule?
Its inhibition at 30 µM is 54.3%.

And the efflux ratio [6]?
Its efflux ratio is 1.9.

And the Papp A→B [6]?
The Papp A→B was 12 ×10⁻⁶ cm/s.

And the logD (Log D measurement)?
Its logD is 3.4.

And the “FaSSIF (μM) measured at pH 6.5” value (FaSSIF solubility)?
Its value is 25 μM.

What about the IC50 (Cathepsin S) of the same molecule?
Its IC50 is > 30 µM.

What about the fraction unbound [7] of the same molecule?
The fraction unbound was 0.028.

And the “Unbound plasma Cmax/TOM20-Ub cell potency” value (PK mouse)?
Its value is 7-fold.

What about the bioavailability (PK mouse; in vivo) of the same molecule?
Its bioavailability is 36%.

And the clearance (PK mouse; [8])?
The clearance was 58 mL/min/kg.

What about the solubility (Turbidimetric solubility) of the same molecule?
Its solubility is > 100 µM.
